For one data set, the system named is H358 cells. Put plainly: Inhibition of 3D cell proliferation (3D CellTiter-Glo). To be noted: Homo sapiens, NCI-H358, 168 h, read-out: IC50 (nM), inhibition of 3D proliferation of H358 cells, 7 days. The data set is classed as cell-based. The method, then:
H358 cells were seeded in a T75 culture flask and cultured in a RPMI 1640 medium containing 10% FBS for 2 days for subsequent experiments in which the cells would be cultured or seeded on a 384-well plate.
On day 1, the cells were seeded on the 384-well plate, with 40 μL of medium added per well and serially diluted compounds or DMSO added per well, and an additional well without seeded cells but with medium was set up as a blank control. After culture at 37° C., 5% CO2 for 7 days, the plate was added with 3D CellTiter-Glo reagent (Promega, Cat. No. G9683) on day 8, shaken at 320 rpm for 20 min, and left at room temperature for 2 h. Luminescence signals were read on a multifunctional microplate reader. Cell viability inhibition rate was calculated as:
Cell viability inhibition rate=(DMSO group−test compound)/(DMSO group−blank control group)×100%
IC50 values were calculated using Graphpad 5 software.
On the technique in general: Cellular ATP, detected with luciferase, serves as a proxy for viable cell number.

A short description of data set [1]: Human liver microsome stability test. The data set is classed as in vitro ADME. To be noted: human liver microsomes; for Remaining percentage (%) of compound after incubation for 30 min: 37° C.; for half-life at 1 µM: human. The protocol: The human liver microsome stability test was performed by incubating the compound and human liver microsomes in vitro. First, the compound to be tested was prepared into a 10 mM stock solution in DMSO solvent, and then the compound was diluted to 0.5 mM with acetonitrile. Human liver microsomes (Corning) were diluted with PBS into a microsome/buffer solution, and the solution was used to dilute 0.5 mM compound into a working solution, in which the concentration of the compound was 1.5 μM, and the concentration of human liver microsomes was 0.75 mg/mL. A deep-well plate was taken, 30 μL of the working solution was added per well, and then 15 μL of pre-heated 6 mM NADPH solution was added thereto to initiate a reaction, and the reaction was incubated at 37° C. At 0, 5, 15, 30 and 45 min of the incubation, 135 μL of acetonitrile was added to the corresponding wells to terminate the reaction. After the reaction was terminated with acetonitrile at the last time point of 45 min, the deep-well plate was vortexed and vibrated for 10 min (600 rpm/min), and then centrifuged for 15 min. After centrifugation, the supernatant was collected, and added with purified water in a ratio of 1:1 to perform LC-MS/MS detection. A ratio of a peak area of compound to a peak area of internal standard at each time point was obtained, and the peak area ratios of the compound at 5, 15, 30 and 45 min were compared with the peak area ratio at 0 min to calculate the remaining percentage of the compound at each time point. T1/2 was calculated by using GraphPad 5 software.

Data set [2] can be described thus: Pharmacokinetic test in mice. The data set is classed as in vivo. The following applies: mouse, plasma; male ICR mice, oral gavage, 10 mg/kg. The protocol:
Male ICR mice (20 to 25 g) were used and fasted overnight. Three mice were taken and orally administered by gavage (10 mg/kg). Blood was collected before the administration, and at 15 min, 30 min, 1 h, 2 h, 4 h, 8 h and 24 h after the administration. 6,800 g of the blood samples were centrifuged at 2 to 8° C. for 6 min, and plasma was collected and stored at −80° C. The plasma at each time point was taken and added with an acetonitrile solution containing internal standard in 3 to 5 times the amount, vortexed and mixed for 1 min, and centrifuged at 13,000 rpm/min at 4° C. for 10 min. The supernatant was collected, added with water in 3 times the amount, and mixed. An appropriate amount of the mixture was taken for LC-MS/MS analysis. The main pharmacokinetic parameters were analyzed using WinNonlin 7.0 software with non-compartmental model.

Usually half-life stands for the time in which the quantity being followed falls by half. The AUC(0-t) is exposure summed from dosing to a finite time, without extrapolation to infinity. A low value points to less exposure. Broadly, the Cmax is the peak of the concentration-time curve. In general, Tmax refers to the time from dosing to the highest level.

As for `Cc1nc(N[C@H](C)c2cccc(S(=O)(=O)C(F)F)c2C)c2cn(C3(CF)CC3)c(=O)cc2n1` [Compound I-1, (R)-4-((1-(3-((difluoromethyl)sulfonyl)-2-methylphenyl)ethyl)amino)-6-(1-(fluoromethyl)cyclopropyl)-2-methylpyrido[4,3-d]pyrimidin-7(6H)-one], the IC50 in the data set on H358 cells turned out to be 26 nM. Moreover, in data set [1], the “Remaining percentage (%) of compound after incubation for 30 min” value is recorded as 76.4% and the half-life at 1 µM came to 1.46 h.
`Cc1nc(N[C@H](C)c2cccc(S(=O)(=O)C(F)(F)F)c2F)c2cn(C3(CF)CC3)c(=O)cc2n1` [Compound I-2, (R)-4-((1-(2-fluoro-3-((trifluoromethyl)sulfonyl)phenyl)ethyl)amino)-6-(1-(fluoromethyl)cyclopropyl)-2-methylpyrido[4,3-d]pyrimidin-7(6H)-one]: in data set [2], the AUC(0-t) came to 517 ng·h/mL, the peak level (Cmax) was 256 ng/mL, the Tmax was found to be 0.5 h and the half-life was 0.99 h. Besides, in the data set on H358 cells, the IC50 came out at 13.9 nM. For the same compound, in data set [1], the “Remaining percentage (%) of compound after incubation for 30 min” value was 96.5% and the half-life at 1 µM came to 7.92 h.

Values taken from patent publication US20240166645A1, “PYRIDOPYRIMIDINONE DERIVATIVE, PREPARATION METHOD THEREFOR, AND USE THEREOF” (Wuhan Humanwell Innovative Drug Research and Development …, priority 2021, published 2024).
